Here are results for seven molecules from US10907153B2, “Treatment of heart disease by inhibtion of the action of muscle A-kinase anchoring protein (mAKAP)” (priority 2017, dated 2021).

Test [1] relates to neonatal rat ventricular myocytes. The experiment in a line: Hypertrophy of cultured neonatal rat ventricular myocytes (cross-section area, ANF expression). It is filed as cell-based. The following applies: for agonist-induced myocyte hypertrophy: pan-RSK inhibitors, neonatal myocytes. On the procedure:
Neonatal rat myocytes isolation and culture: 1-3 day old Sprague-Dawley rats were decapitated and the excised hearts placed in 1×ADS Buffer (116 mmol/L NaCl, 20 mmol/L HEPES, 1 mmol/L NaH2PO4, 5.5 mmol/L glucose, 5.4 mmol/L KCl, 0.8 mmol/L MgSO4, pH 7.35). The atria were carefully removed and the blood washed away. The ventricles were minced and incubated with 15 mL 1×ADS Buffer containing 3.3 mg type II collagenase (Worthington, 230 U/mg) and 9 mg Pancreatin (Sigma) at 37° C. while shaking at 80 RPM. After 15 minutes, the dissociated cardiac myocytes were separated by centrifugation at 50×g for 1 minute, resuspended in 4 mL horse serum and incubated 37° C. with occasional agitation. The steps for enzymatic digestion and isolation of myocytes were repeated 10-12 times to maximize yield. The myocytes were pooled and spun down again at 50×g for 2 minutes and resuspended in Maintenance Medium (DMEM:M199, 4:1) supplemented with 10% horse serum and 5% fetal bovine serum. To remove any contaminating fibroblasts, the cells were pre-plated for 1 hour before plating on gelatin-coated tissue culture plasticware. This procedure yields >90% pure cardiac myocytes. After 1 day in culture, the media was changed to maintenance medium containing 0.1 mmol/L bromodeoxyuridine to suppress fibroblast growth.
Experiments were initiated 1 day after myocyte isolation. Adenoviral infection was performed by addition of adenovirus (multiplicity of infection=5-50) to the media. Plasmids and siRNA oligonucleotides were transfected using Transfast (Promega) and Dharmafect (Thermofisher), respectively, as recommended by the manufacturers using cells cultured in maintenance medium supplemented with 4% horse serum. Starting the day after gene transduction, the cells were treated for as long as 2 days, as indicated for each experiment. […]
Morphometry: Morphometric data was acquired using IPLab Software. […] For adult mouse cardiac myocytes, the maximum lengths perpendicular (width) or parallel (length) to the myofibrils were measured for >100 freshly dissociated myocytes per heart.

Test [2] relates to Noonan syndrome mouse model. The following applies: Wu 2011; cited from earlier work.
A further test has as its system NHE1. The following applies: Cuello 2007; cited from earlier work.
Another test concerns RSK. In words: RSK activation in neonatal rat ventricular myocytes (pan-RSK S218 phospho-specific antibody). The following applies: α-adrenergic stimulation, MEK1/2- and MEK5-dependent. It is filed as cell-based. From the text: RSK family members can be activated in most cell types by ERK, but not c-Jun N-terminal kinases or p38 (Anjum 2008). ERK phosphorylation is permissive for PDK1 phosphorylation of the RSK N-terminal kinase domain, such that PDK1 phosphorylation of RSK S^218 is indicative of full activation of the enzyme (FIG. 4A of U.S. Pat. No. 9,132,174). […] The α-adrenergic stimulation with phenylephrine (PE) induced RSK phosphorylation 3-fold by both MEK1/2-dependent (that activates ERK1/2) and MEK5-dependent (that activates ERK5) mechanisms (FIG. 22 of U.S. Pat. No. 9,132,174).

For a further test, the system named is RSK3 and mAKAPβ. In words: Co-immunoprecipitation of endogenous RSK3 with mAKAPβ in neonatal myocytes. It is filed as cell-based, rat. The following applies: expressed in neonatal myocytes. On the procedure: Immunoprecipitations: HEK293 and COS-7 cells were transfected with Lipofectamine 2000 (Invitrogen) or Polyethylenimine “Max” (Polysciences). Cells (including myocytes) were lysed in buffer (20 mmol/L HEPES, pH 7.4, 150 mmol/L NaCl, 5 mmol/L EDTA, 0.5% Triton, 50 mmol/L NaF, 1 mmol/L sodium orthovanadate, 1 mmol/L DTT, and protease inhibitors). After centrifugation at 10,000×g for 10 minutes at 4° C., the clarified extracts were used for immunoprecipitation using appropriate antibodies (10 μg purified antibody or 1-5 μL whole serum) and 20 μL protein G sepharose (Millipore, Fastflow) for 3 hours to overnight at 4° C. The beads were washed 3-5 times with lysis buffer, and the immunoprecipitated proteins were eluted with 1× Laemmli buffer for western blotting. Western blots were developed using horseradish peroxidase-conjugated donkey secondary antibodies, Supersignal West Chemiluminescent Substrates (Thermo Scientific) and X-ray film or a Fujifilm LAS-3000 imaging system.
B. Transfected myocytes expressing GFP or GFP-RBD (green) were stained with α-actinin (blue) and ANF (red) antibodies. Bar=20 μm. C. Cross-section area of myocytes. n=5. D. Fraction of myocytes expressing ANF. n=3. * p-values comparing to GFP-expressing samples. † p-values comparing to no agonist control.

The subject of another test is wildtype mice. The experiment in a line: Transverse aortic constriction (2 week TAC) after AAV9 injection. The note with it: AAV9 injected into neonatal mice, 2 week TAC at 8 weeks of age. It is filed as in vivo, mouse. From the text:
Transverse Aortic Constriction: All tools were sterilized with a Germinator 500 Dry Sterilizer and Betadine Solution (10% povidone-iodine topical solution). Anesthesia was induced with 5% isoflurane and maintained with 2% isoflurane and 100% oxygen at a flow rate of 1.5 L/min using a SurgiVet flow regulator via nose cone. Loss of consciousness was verified by toe pinch. Mouse fur over the left chest and sternum was removed with a calcium hydroxide lotion (e.g. Nair), and the surgical site was sterilized with betadine. The skin was incised exposing the pectoralis muscle and the second left intercostal space. […] The lobes of the thymus were retracted to reveal the transverse aortic arch as well as the right innominate and left common carotid arteries. […]
Echocardiography: Mice minimally anesthetized with 1-2% isoflurane were studied using a Vevo 770®, High-Resolution Imaging System (VisualSonics). The pressure gradient following TAC was calculated from the pulse wave Doppler velocity at the point of ligation as follows: P=4v^2; P=the induced pressure gradient (in mmHg) and v=the velocity across the constriction (in m/s).^7
AAV9 containing the indicated CIS plasmid encoding myc-GFP-mAKAP 1694-1833 were injected into neonatal wildtype mice. 2 week TAC was performed and analyzed as above at 8 weeks of age. […]

As to `CC(C)CCN1c2nc(Nc3cc(F)c(O)c(F)c3)ncc2N(C)C(=O)C1C` (centres unmarked) [BI-D1870], the agonist-induced myocyte hypertrophy result in test [1] was “inhibited”.
For `O=C(NOC[C@H](O)CO)c1ccc(F)c(F)c1Nc1ccc(I)cc1F` [PD0325901], in test [2], the “progression of cardiac hypertrophy cardiomyopathy and other Noonan characteristics” value is recorded as “attenuated progression”.
Take `CC(=O)OC1C(C)OC(Oc2c(-c3ccc(O)cc3)oc3cc(O)cc(O)c3c2=O)C(O)C1OC(C)=O` (centres unmarked) [SL0101]: the agonist-induced myocyte hypertrophy result in test [1] is recorded as “inhibited”.
For `Cc1ccc(-c2c(C(=O)CF)n(CCCO)c3ncnc(N)c23)cc1` [fmk], in the test on NHE1, the “α-adrenergic-induced NHE1 phosphorylation” value is recorded as “blocked”.
With `CNC[C@H](O)c1cccc(O)c1` [phenylephrine], the RSK phosphorylation induced in the test with RSK came out at 3 fold.

B1: green fluorescent protein—mAKAP RBD fusion protein: GFP fused to the mAKAP RSK3 binding domain (mAKAP residues 1694 to 1833), an anchoring disruptor (protein)
chain: ELSLCSEDIVLHKNKIPESNASFRKRLNRSVADESDVNVSMIVNVSCTSACTDDEDDSDLLSSSTLTLTEEELCLKDEDDDSSIATDDEIYEESNLMSGLDYIKNELQTWIRPKLSLTREKKRSGVTDEIKVNKDGGGNE
modifications: left off: small tags and cut ends; large carriers
Take B1: the “association of endogenous RSK3 and mAKAPβ” value with RSK3 and mAKAPβ is listed as “competed the association”. The PE-induced hypertrophy result in test [1] (expressed in neonatal myocytes, phenylephrine) is on record as “markedly inhibited”.

B2: myc-GFP-mAKAP 1694-1833: myc-GFP-tagged mAKAP 1694-1833 expressed in vivo from AAV9 (protein)
chain: ELSLCSEDIVLHKNKIPESNASFRKRLNRSVADESDVNVSMIVNVSCTSACTDDEDDSDLLSSSTLTLTEEELCLKDEDDDSSIATDDEIYEESNLMSGLDYIKNELQTWIRPKLSLTREKKRSGVTDEIKVNKDGGGNE
modifications: left off: small tags and cut ends; large carriers
notes: myc-GFP-tagged mAKAP 1694-1833 expressed in vivo from AAV9
Consider B2, for which, in the test with wildtype mice, the “concentric hypertrophy in vivo in the adult heart” value was “inhibited concentric hypertrophy”.
